Like-named read-outs stand apart in the source and are kept apart here.
Assays:
recombinant HuBraf V600E = recombinant HuBraf V600E (Homo sapiens, UniProt P15056, V600E); assay: B-raf Homogenous Time Resolved Fluorescent (HTRF) kinase assay; assay type: biochemical; conditions: substrate MEK1, 10 uM ATP; threshold lists; read-out: IC50 for the inhibition of B-raf as measured by the HTRF assay
Protocol: A Homogeneous Time Resolved Fluorescence (HTRF) kinase assay was established to assay the ability of compounds to inhibit human mutant Braf kinase activity on the substrate MEK1. […] The final concentration of the kinase reaction buffer is 50 mM Tris-HCL pH 7.5, 10 mM MgCl2, 0.5% glucose, 0.5 mM DTT, 0.01% BSA.
The detection reaction proceeds for one hour and is read on a RubyStar (BMG Labtech) counter. IC50s for the test compounds are generated using Excel-XLfit software.

[1] = system: A375 cells, a human melanoma cell line having the V600E mutant Braf; assay: B-Raf cell-based assay (ratio of phospho-ERK1/2 to total ERK1/2); conditions: A-375, 1 h, P-ERK/total ERK, 60 minute incubation, read-out: IC50 for the inhibition of B-raf as measured by the cell-based assay
Protocol: A cell-based assay was optimized to assay the ability of compounds to inhibit Braf activity in a whole cell context. […] The cell-based assay quantifies the ratio of phospho-ERK1/2 to total ERK1/2 and can thereby assay the cellular inhibition of Braf kinase activity.
A375 cells are plated into 96 well plates and grown to confluence. The cells are then changed into starve media (DMEM/0.1% BSA) for 60 minutes. Compounds in DMSO dose curves are then diluted in starve media and added to cells. […] After a 60 minute incubation the cells are fixed for 20 minutes at room temperature in 4% formaldehyde with 0.1%Triton X-100, protease and phosphatase inhibitors in PBS. The cells are washed four times in PBS then blocked for 60 minutes using a one to one mix of Odyssey blocking buffer (Li-Cor Biosciences, Inc) and PBS. Primary antibodies (rabbit anti-phospho p42/p44 MAPK (P-ERK1/2) from Cell Signaling Technology and mouse anti-ERK2 from Santa Cruz Biotechnology) are diluted in blocking buffer, added to the cells and incubated overnight at 4° C. The cells are then washed four times in PBS/0.1% Tween-20. Secondary antibodies (anti-mouse IRDye 800CW from Rockland, Inc and anti-rabbit AlexaFlour680 from Molecular Probes) are diluted in blocking buffer/0.5% Tween and incubated on cells for 60 minutes. After 4 washes in PBS/0.1% Tween-20 the microplate is scanned on an Odyssey Infrared Imager (Li-Cor Bioscience) which can read the signal given by the two secondary antibodies on their respective channels. The ratio of P-ERK/total ERK is determined and IC50s generated using Excel-XLfit software.

Sequence of recombinant HuBraf V600E (P15056 whole entry V600E): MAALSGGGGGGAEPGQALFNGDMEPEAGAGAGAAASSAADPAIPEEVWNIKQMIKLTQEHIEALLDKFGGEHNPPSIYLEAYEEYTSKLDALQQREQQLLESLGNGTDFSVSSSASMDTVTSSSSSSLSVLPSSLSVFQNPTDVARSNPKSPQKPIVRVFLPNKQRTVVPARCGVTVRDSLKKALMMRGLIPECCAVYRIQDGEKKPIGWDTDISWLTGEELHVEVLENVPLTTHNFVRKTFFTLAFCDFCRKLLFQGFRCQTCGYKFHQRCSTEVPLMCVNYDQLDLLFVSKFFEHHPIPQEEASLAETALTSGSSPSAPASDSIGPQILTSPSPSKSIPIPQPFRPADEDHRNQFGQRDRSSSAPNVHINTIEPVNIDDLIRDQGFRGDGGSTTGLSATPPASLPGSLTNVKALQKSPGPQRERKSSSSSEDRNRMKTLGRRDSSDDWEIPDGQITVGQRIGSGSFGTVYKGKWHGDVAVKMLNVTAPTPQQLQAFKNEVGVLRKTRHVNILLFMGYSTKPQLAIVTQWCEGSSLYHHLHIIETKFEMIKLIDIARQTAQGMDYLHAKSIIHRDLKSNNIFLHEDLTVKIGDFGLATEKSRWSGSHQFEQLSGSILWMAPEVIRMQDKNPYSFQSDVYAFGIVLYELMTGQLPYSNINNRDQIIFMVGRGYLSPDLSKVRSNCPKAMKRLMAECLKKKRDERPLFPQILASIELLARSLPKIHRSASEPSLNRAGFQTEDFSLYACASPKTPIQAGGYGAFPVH

| SMILES | IC50 (recombinant HuBraf V600E) [nM] | IC50 ([1]; threshold list) [nM] | IC50 ([1]; threshold lists) [nM] |
| --- | --- | --- | --- |
| CNc1cc(-c2cccnc2Nc2c(C)ccc3c(Nc4ccc5c(c4)NCCC5(C)C)nccc23)ncn1 [Example 72, N^1-(4,4-dimethyl-1,2,3,4-tetrahydro-7-quinolinyl)-6-methyl-N^5-(3-(6-(methylamino)-4-pyrimidinyl)-2-pyridinyl)-1,5-isoquinolinediamine] | ≤ 1000 | ≤ 500 | – |
| CNc1ncc2cc(-c3c(C)ccc4c(Nc5cccc(OC(C)C)c5)n[nH]c34)ccc2n1 [Example 78, N-methyl-6-(6-methyl-3-((3-((1-methylethyl)oxy)phenyl)amino)-1H-indazol-7-yl)-2-quinazolinamine] | ≤ 250 | ≤ 500 | – |
| CNc1ncc2cc(-c3c(C)ccc4c(Nc5ccc6c(c5)NCC6(C)C)nccc34)ccc2n1 [Example 79, 6-(1-((3,3-dimethyl-2,3-dihydro-1H-indol-6-yl)amino)-6-methyl-5-isoquinolinyl)-N-methyl-2-quinazolinamine] | ≤ 250 | ≤ 500 | – |
| Cc1ccc2c(Nc3ccc4c(c3)NCC4(C)C)nccc2c1Nc1ncccc1-c1ccncn1 [Example 80, N^1-(3,3-dimethyl-2,3-dihydro-1H-indol-6-yl)-6-methyl-N^5-(3-(4-pyrimidinyl)-2-pyridinyl)-1,5-isoquinolinediamine] | ≤ 250 | ≤ 500 | – |
| CNc1ncc2cc(-c3c(C)ccc4c(Nc5ccc6c(c5)NCC6(C)C)ncnc34)ccc2n1 [Example 81, N^4′-(3,3-dimethyl-2,3-dihydro-1H-indol-6-yl)-N^2,7′-dimethyl-6,8′-biquinazoline-2,4′-diamine] | ≤ 250 | ≤ 500 | – |
| CNc1ncc2cc(-c3c(C)ccc4c(Nc5ccc(C)c(F)c5)nn(C)c34)ccc2n1 [Example 198] | ≤ 250 | ≤ 500 | ≤ 1000 |
| CNc1ncc2cc(-c3c(C)ccc4c(Nc5ccc(-n6ccnc6)cc5)nn(C)c34)ccc2n1 [Example 204] | ≤ 250 | ≤ 500 | ≤ 1000 |
| CNc1cc(-c2cccnc2Nc2c(C)ccc3c(Nc4cccc(C(F)(F)F)c4)ncnc23)ncn1 [Example 337, 7-methyl-N8-(3-(6-(methylamino)pyrimidin-4-yl)pyridin-2-yl)-N4-(3-(trifluoromethyl)phenyl)quinazoline-4,8-diamine] | ≤ 250 | – | ≤ 5000 |
| CNc1cc(-c2cccnc2Nc2c(C)ccc3c(Nc4cccc(OC(F)(F)F)c4)ncnc23)ncn1 [Example 343] | ≤ 250 | ≤ 500 | – |
| Cc1ccc(C(F)(F)F)cc1Nc1nccc2c(Nc3ncccc3-c3ncnc4[nH]ccc34)c(C)ccc12 [Example 346] | ≤ 500 | – | ≤ 5000 |
| CNc1cc(-c2cccnc2Nc2c(C)ccc3c(Nc4ccc(Cl)c(C)c4)nccc23)ncn1 [Example 352] | ≤ 250 | – | ≤ 5000 |
| CNc1ncc2cc(-c3c(C)sc4c(Nc5ccc(OC)c(C(F)(F)F)c5)nccc34)ccc2n1 [Example 392, 6-(7-(4-methoxy-3-(trifluoromethyl)phenylamino)-2-methylthieno[2,3-c]pyridin-3-yl)-N-methylquinazolin-2-amine] | ≤ 250 | ≤ 500 | – |
| CNc1ncc2cc(-c3c(C)sc4c(Nc5cccc(C(F)(F)F)c5)nccc34)ccc2n1 [Example 393, N-methyl-6-(2-methyl-7-(3-(trifluoromethyl)phenylamino)thieno[2,3-c]pyridin-3-yl)quinazolin-2-amine] | ≤ 250 | – | ≤ 5000 |
| CNc1ncc2cc(-c3c(C)ccc4c(Oc5cccc(C(F)(F)F)c5)nccc34)ccc2n1 [Example 395, N-methyl-6-(6-methyl-1-(3-(trifluoromethyl)phenoxy)isoquinolin-5-yl)quinazolin-2-amine] | ≤ 250 | ≤ 500 | – |
| CNc1ncc2cc(-c3c(C)ccc4c(Nc5cccc(C(F)(F)F)c5)nsc34)ccc2n1 [Example 398, N-methyl-6-(6-methyl-3-(3-(trifluoromethyl)phenylamino)benzo[d]isothiazol-7-yl)quinazolin-2-amine] | ≤ 250 | ≤ 500 | – |
| CNc1ncc2cc(-c3c(C)ccc4c(Nc5ccc(OC)c(C(F)(F)F)c5)nsc34)ccc2n1 [Example 399, 6-(3-(4-methoxy-3-(trifluoromethyl)phenylamino)-6-methylbenzo[d]isothiazol-7-yl)-N-methylquinazolin-2-amine] | ≤ 250 | ≤ 500 | – |
| CNc1ncc2cc(-c3c(C)cnc4c(Nc5ccc(OC)c(C(F)(F)F)c5)nccc34)ccc2n1 [Example 410] | ≤ 1000 | ≤ 500 | – |
